Experimental data taken from patent publication US20030166922A1, “Novel cephalosporin compounds and process for preparing the same” (priority 2000, published 2003).
Values after ≈ are worked out from the molar mass of the structure shown. Read-outs that look alike come from different tables or passages of the source.

Tests used:
Assay in all cases: Minimum Inhibitory Concentration (MIC), agar dilution, standard strains
E. faecalis EFS004 = format: cell-based; conditions: Table 2; Mueller-Hinton agar, 37° C., 20 hours
Description: (§1) Minimum Inhibitory Concentration (MIC)
(§2) The effectiveness of the compound according to the present invention was determined by obtaining Minimum Inhibitory Concentration (MIC) of the compounds prepared by the above Examples (I-1 to I-33) and vancomycin, which is the known compound having a potent activity against gram-positive strains, as the control drug against the standard strains. Specifically, Minimum Inhibitory Concentration was obtained by diluting the test material with a double dilution method, dispersing them in Mueller-Hinton agar medium, inoculating each of the test strain having 10^7 cfu (colny forming unit) in an amount of 2:1 to the medium and then incubating them at 37° C. for 20 hours.

S. epidermidis R005 = format: cell-based; conditions: Mueller-Hinton agar, 37° C., 20 hours; for MIC: Staphylococcus epidermidis, R005, read-out: Minimum Inhibitory Concentration (MIC), S. epidermidis R005
Description: as §1, §2

[1] = system: Staphylococcus aureus giorgio; format: cell-based; conditions: Mueller-Hinton agar, 37° C., 20 hours; for Minimum Inhibitory Concentration (MIC), S. aureus giorgio: Table 2; for MIC: Staphylococcus aureus, read-out: Minimum Inhibitory Concentration (MIC), Staphylococcus aureus giorgio; for MIC / Minimum Inhibitory Concentration (MIC), Staphylococcus aureus giorgio: Table 1
Description: as §1, §2

S. aureus 77 = format: cell-based, Staphylococcus aureus; conditions: Mueller-Hinton agar, 37° C., 20 hours; for MIC: Staphylococcus aureus, 77, read-out: Minimum Inhibitory Concentration (MIC), S. aureus 77
Description: as §1, §2

S. aureus K311 = format: cell-based, Staphylococcus aureus; conditions: Table 2; Mueller-Hinton agar, 37° C., 20 hours
Description: as §1, §2

E. faecalis L239 = format: cell-based; conditions: Table 1, Mueller-Hinton agar, 37° C., 20 hours; for MIC: Enterococcus faecalis, L239, read-out: Minimum Inhibitory Concentration (MIC), E. faecalis L239
Description: as §1, §2

S. aureus 241 = format: cell-based, Staphylococcus aureus; conditions: Table 1, Mueller-Hinton agar, 37° C., 20 hours; for MIC: Staphylococcus aureus, 241, read-out: Minimum Inhibitory Concentration (MIC), S. aureus 241
Description: as §1, §2

Compound | Minimum Inhibitory Concentration (MIC), E. faecalis EFS004 (E. faecalis EFS004) | Minimum Inhibitory Concentration (MIC), S. epidermidis R005 (S. epidermidis R005; Table 2) | Minimum Inhibitory Concentration (MIC), S. aureus giorgio [1] | Minimum Inhibitory Concentration (MIC), S. aureus 77 (S. aureus 77; Table 2) | Minimum Inhibitory Concentration (MIC), S. aureus K311 (S. aureus K311) | Minimum Inhibitory Concentration (MIC), E. faecalis L239 (E. faecalis L239) | Minimum Inhibitory Concentration (MIC), S. epidermidis R005 (S. epidermidis R005; Table 1) | Minimum Inhibitory Concentration (MIC), Staphylococcus aureus giorgio [1] | Minimum Inhibitory Concentration (MIC), S. aureus 241 (S. aureus 241) | Minimum Inhibitory Concentration (MIC), S. aureus 77 (S. aureus 77; Table 1) | also measured
Cn1c(N)n[n+]2c(SCSC3=C(C(=O)O)N4C(=O)[C@@H](NC(=O)CSc5cc(Cl)nc(Cl)c5)[C@H]4SC3)nc(N)cc12 [Example I-31, 2,7-diamino-5-[({[(6R,7R)-2-carboxy-7-({2-[(2,6-dichloro-4-pyridinyl)sulf-anyl]acetyl}amino)-8-oxo-5-thia-1-azabicyclo[4.2.0]oct-2-en-3-yl]sulfanyl}methyl)sulfan-yl]-1-methyl-1H-[1,2,4]triazolo[1,5-c]pyrimidin-4-ium] | 0.5 :g/ml | 0.25 :g/ml | 0.031 :g/ml | 0.25 :g/ml | 0.5 :g/ml |  |  |  |  |  | 
Nc1cc(SCSC2=C(C(=O)O)N3C(=O)[C@@H](NC(=O)CSc4cc(Cl)nc(Cl)c4)[C@H]3SC2)nc(N)n1 [Example I-24, (6R,7R)-3-({[(2,6-diamino-4-pyrimidinyl)sulfanyl]methyl}sulfanyl)-7-({2-[(2,6-dichloro-4-pyridinyl)sulfanyl]acetyl}amino)-8-oxo-5-thia-1-azabicyclo[4.2.0]oct-2-ene-2-carboxylic acid] | 0.5 :g/ml |  | 0.016 :g/ml |  | 0.5 :g/ml |  |  |  |  |  | MIC (S. epidermidis R005; Table 2): 0.25 µg/mL (≈ 0.412 µM); MIC (S. aureus 77; Table 2): 0.25 µg/mL (≈ 0.412 µM)
Nc1nc(SCSC2=C(C(=O)O)N3C(=O)[C@@H](NC(=O)CSc4cc(Cl)nc(Cl)c4)[C@H]3SC2)nc2[nH]ncc12 [Example I-26, (6R,7R)-3-({[(4-amino-1H-pyrazolo[3 ,4-d]pyrimidin-6-yl)sulfanyl]methy-1}sulfanyl)-7-({2-[(2,6-dichloro-4-pyridinyl)sulfanyl]acetyl}amino)-8-oxo-5-thia-1-azabi-cyclo[4.2.0]oct-2-ene-2-carboxylic acid] | 0.5 :g/ml | 0.25 :g/ml | 0.016 :g/ml | 0.25 :g/ml | 0.5 :g/ml |  |  |  |  |  | 
C[n+]1c(SCSC2=C(C(=O)O)N3C(=O)[C@@H](NC(=O)CSc4cc(Cl)nc(Cl)c4)[C@H]3SC2)cc(N)nc1N [Example I-33, 2,4-diamino-6-[({[(6R,7R)-2-carboxy-7-({2-[(2,6-dichloro-4-pyridinyl)sulf-anyl]acetyl}amino)-8-oxo-5-thia-1-azabicyclo[4.2.0]oct-2-en-3-yl]sulfanyl}methyl)sulfan-yl]-1-methylp yrimidin-1-ium] | 0.5 :g/ml | 0.25 :g/ml | 0.031 :g/ml | 0.25 :g/ml | 1 :g/ml |  |  |  |  |  | 
Nc1cc(N)nc(SCSC2=C(C(=O)O)N3C(=O)[C@@H](NC(=O)CSc4cc(Cl)nc(Cl)c4)[C@H]3SC2)n1 [Example I-25, (6R,7R)-3-({[(4,6-diamino-2-pyrimidinyl)sulfanyl]methyl}sulfanyl)-7-({2-[(2,6-dichloro-4-pyridinyl)sulfanyl]acetyl}amino)-8-oxo-5-thia-1-azabicyclo[4.2.0]oct-2-ene-2-carboxylic acid] | 0.5 :g/ml |  | 0.016 :g/ml |  | 0.5 :g/ml |  |  |  |  |  | MIC (S. epidermidis R005; Table 2): 0.25 µg/mL (≈ 0.412 µM); MIC (S. aureus 77; Table 2): 0.25 µg/mL (≈ 0.412 µM)
CCSc1nc(C)cc(SCSC2=C(C(=O)O)N3C(=O)[C@@H](NC(=O)CSc4cc(Cl)nc(Cl)c4)[C@H]3SC2)n1 [Example I-29, (6R,7R)-7-({2-[(2,6-dichloro-4-pyridinyl)sulfanyl]acetyl}amino)-3-[({[2-(ethylsulfanyl)-6-methyl-4-pyrimidinyl]sulfanyl)methyl]sulfanyl}-8-oxo-5-thia-1-azabicy-clo[4.2.0]oct-2-ene-2-carboxylic acid] | 0.25 :g/ml | 1 :g/ml | 0.031 :g/ml | 0.5 :g/ml | 2 :g/ml |  |  |  |  |  | 
Nc1cc(SCSC2=C(C(=O)O)N3C(=O)[C@@H](NC(=O)CSc4cc(Cl)ccc4Cl)[C@H]3SC2)nc(O)n1 [Example I-4, (6R,7R)-3-({[(6-amino-2-hydroxy-4-pyrimidinyl)sulfanyl]methyl}sulfanyl)-7-({2-[(2,5-dic hlorophenyl)sulfanyl]acetyl}amino)-8-oxo-5-thia-1-azabicyclo[4.2.0]oct-2-ene-2-carboxylic acid] |  |  |  |  |  |  |  |  |  |  | MIC (E. faecalis L239): 0.5 µg/mL (≈ 0.824 µM); MIC (S. epidermidis R005; Table 1): 0.25 µg/mL (≈ 0.412 µM); MIC [1]: < 8 ng/mL; MIC (S. aureus 241): 4 µg/mL (≈ 6.59 µM); MIC (S. aureus 77; Table 1): 0.25 µg/mL (≈ 0.412 µM)
Nc1cc(N)[n+](N)c(SCSC2=C(C(=O)O)N3C(=O)[C@@H](NC(=O)CSc4cc(Cl)ccc4Cl)[C@H]3SC2)n1 [Example I-10, (6R,7R)-1,4,6-triamino-2-[({[2-carboxy-7-({2-[(2,5-dichlorophenyl)sulfany-1]acetyl}amino)-8-oxo-5-thia-1-azabicyclo[4.2.0]oct-2-en-3-yl]sulfanyl}methyl)sulfanyl]p-yrimidin-1-iu m] |  |  |  |  |  | 0.5 :g/ml | 0.13 :g/ml | <0.008 :g/ml | 4 :g/ml | 0.25 :g/ml | 
(6R,7R)-2,4-diamino-6-[({[2-carboxy-7-({2-[(2,5-dichlorophenyl)sulfany-1]acetyl}amino)-8-oxo-5-thia-1-azabicyclo[4.2.0]oct-2-en-3-yl]sulfanyl}methyl)sulfanyl]-1-ethyl-1,3,5-tria zine-1,3-diium [Example I-20] |  |  |  |  |  | 0.5 :g/ml | 0.5 :g/ml | <0.008 :g/ml | 8 :g/ml | 1 :g/ml | 
Nc1nc(SCSC2=C(C(=O)O)N3C(=O)[C@@H](NC(=O)CSc4cc(Cl)ccc4Cl)[C@H]3SC2)c2c([n+]1N)CCC2 [Example I-11, (6R,7R)-1 ,2-diamino-4-[({(E)-3-[2-carboxy-7-({2-[(2,5-dichlorophenyl)sulf-anyl]acetyl}amino)-8-oxo-5-thia-1-azabicyclo[4.2.0]oct-2-en-3-yl]sulfanyl}methyl)sulfan-yl]-6,7-dihyd ro-5H-cyclopenta[d]pyrimidin-1-ium] |  |  |  |  |  | 0.25 :g/ml | 0.063 :g/ml | <0.008 :g/ml | 1 :g/ml | 0.063 :g/ml | 
Cc1c(N)nc([S+]([O-])CSC2=C(C(=O)O)N3C(=O)[C@@H](NC(=O)CSc4cc(Cl)ccc4Cl)[C@H]3SC2)[n+](N)c1N (stereo partly drawn) [Example I-23, (6R,7R)-1,4,6-triamino-2-[({[(2-carboxy-7-({2-[(2,5-dichlorophenyl)sulfan-yl]acetyl}amino)-8-oxo-5-thia-1-azabicyclo[4.2.0]oct-2-en-3-yl)]sulfanyl}methyl)sulfin-yl]-5-methylpyri midin-1-ium] |  |  |  |  |  | 16 :g/ml | 8 :g/ml | 0.5 :g/ml | >32 :g/ml | 8 :g/ml | 
Nc1cc(SCSC2=C(C(=O)O)N3C(=O)[C@@H](NC(=O)CNc4cc(Cl)ccc4Cl)[C@H]3SC2)nc(N)n1 [Example I-5] |  |  |  |  |  | 1 :g/ml | 0.5 :g/ml | 0.016 :g/ml | 8 :g/ml | 0.5 :g/ml | 
Nc1nc(O)cc(SCSC2=C(C(=O)O)N3C(=O)[C@@H](NC(=O)CSc4c(Cl)cccc4Cl)[C@H]3SC2)n1 [Example I-3, (6R,7R)-3-({[(2-amino-6-hydroxy-4-pyrimidinyl)sulfanyl]methyl}sulfanyl)-7-({2-[(2,6-dic hlorophenyl)sulfanyl]acetyl}amino)-8-oxo-5-thia-1-azabicyclo[4.2.0]oct-2-ene-2-carboxylic acid] |  |  |  |  |  |  |  |  |  |  | MIC (E. faecalis L239): 0.5 µg/mL (≈ 0.824 µM); MIC (S. epidermidis R005; Table 1): 0.13 µg/mL (≈ 0.214 µM); MIC [1]: < 8 ng/mL; MIC (S. aureus 241): 8 µg/mL (≈ 13.2 µM); MIC (S. aureus 77; Table 1): 0.25 µg/mL (≈ 0.412 µM)
